According to PubChem BioAssay (NCI):
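Compound exposure: 48 hours, 5 concentrations, 96-well plates. TGI marks complete inhibition of growth.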

Tests used:
Test in all cases: DTP human tumour cell line panel, 48 h
786-0 renal = system: 786-0 renal
A498 renal = system: A498 renal
A549 NSCLC = system: A549 NSCLC
ACHN renal = system: ACHN renal
BT-549 breast = system: BT-549 breast
CAKI-1 renal = system: CAKI-1 renal
CCRF-CEM leukemia = system: CCRF-CEM leukemia
COLO 205 colon = system: COLO 205 colon
DU-145 prostate = system: DU-145 prostate
EKVX NSCLC = system: EKVX NSCLC
HCC-2998 colon = system: HCC-2998 colon
HCT-116 colon = system: HCT-116 colon
HCT-15 colon = system: HCT-15 colon
HL-60(TB) leukemia = system: HL-60(TB) leukemia
HOP-62 NSCLC = system: HOP-62 NSCLC
HOP-92 NSCLC = system: HOP-92 NSCLC
HS 578T breast = system: HS 578T breast
HT29 colon = system: HT29 colon
IGROV1 ovarian = system: IGROV1 ovarian
K-562 leukemia = system: K-562 leukemia
KM12 colon = system: KM12 colon
LOX IMVI melanoma = system: LOX IMVI melanoma
M14 melanoma = system: M14 melanoma
MALME-3M melanoma = system: MALME-3M melanoma
MCF7 breast = system: MCF7 breast
MDA-MB-231 breast = system: MDA-MB-231 breast
MDA-MB-435 = system: MDA-MB-435
MDA-N = system: MDA-N
MOLT-4 leukemia = system: MOLT-4 leukemia
NCI-H226 lung = system: NCI-H226 lung
NCI-H23 lung = system: NCI-H23 lung
NCI-H460 lung = system: NCI-H460 lung
NCI-H522 lung = system: NCI-H522 lung
NCI/ADR-RES ovarian = system: NCI/ADR-RES ovarian
OVCAR-4 ovarian = system: OVCAR-4 ovarian
OVCAR-5 ovarian = system: OVCAR-5 ovarian
OVCAR-8 ovarian = system: OVCAR-8 ovarian
PC-3 prostate = system: PC-3 prostate
RPMI-8226 leukemia = system: RPMI-8226 leukemia
RXF 393 renal = system: RXF 393 renal
SF-295 CNS = system: SF-295 CNS
SF-539 CNS = system: SF-539 CNS
SK-MEL-2 melanoma = system: SK-MEL-2 melanoma
SK-MEL-28 melanoma = system: SK-MEL-28 melanoma
SK-MEL-5 melanoma = system: SK-MEL-5 melanoma
SK-OV-3 ovarian = system: SK-OV-3 ovarian
SN12C renal = system: SN12C renal
SNB-19 CNS = system: SNB-19 CNS
SNB-75 CNS = system: SNB-75 CNS
SR leukemia = system: SR leukemia
SW-620 colon = system: SW-620 colon
T-47D breast = system: T-47D breast
TK-10 renal = system: TK-10 renal
U251 CNS = system: U251 CNS
UACC-257 melanoma = system: UACC-257 melanoma
UACC-62 melanoma = system: UACC-62 melanoma
UO-31 renal = system: UO-31 renal
OVCAR-3 ovarian = system: OVCAR-3 ovarian
SF-268 CNS = system: SF-268 CNS

With `O=[N+]([O-])c1ccc(/C(=C\c2ccccc2)Cn2ccnc2)cc1` as the molecule, how does the TGI (786-0 renal) read?
The TGI was over 100 µM.

What about the TGI (A498 renal) of the same molecule?
The TGI was 72 µM.

What about the TGI (A549 NSCLC) of the same molecule?
Its TGI is over 100 µM.

And the TGI (ACHN renal)?
Its TGI is over 100 µM.

And the TGI (BT-549 breast)?
The TGI was 87.8 µM.

And the TGI (CAKI-1 renal)?
The TGI was 45.6 µM.

What about the TGI (CCRF-CEM leukemia) of the same molecule?
The TGI was over 100 µM.

What about the TGI (COLO 205 colon) of the same molecule?
Its TGI is 30 µM.

What about the TGI (DU-145 prostate) of the same molecule?
The TGI was over 100 µM.

What about the TGI (EKVX NSCLC) of the same molecule?
Its TGI is over 100 µM.

And the TGI (HCC-2998 colon)?
Its TGI is over 100 µM.

What about the TGI (HCT-116 colon) of the same molecule?
Its TGI is over 100 µM.

And the TGI (HCT-15 colon)?
Its TGI is over 100 µM.

What about the TGI (HL-60(TB) leukemia) of the same molecule?
The TGI was 46.4 µM.

And the TGI (HOP-62 NSCLC)?
The TGI was over 100 µM.

What about the TGI (HOP-92 NSCLC) of the same molecule?
Its TGI is 79.9 µM.

And the TGI (HS 578T breast)?
Its TGI is 69.9 µM.

And the TGI (HT29 colon)?
The TGI was 67.1 µM.

What about the TGI (IGROV1 ovarian) of the same molecule?
The TGI was over 100 µM.

What about the TGI (K-562 leukemia) of the same molecule?
Its TGI is 69.2 µM.

And the TGI (KM12 colon)?
The TGI was over 100 µM.

And the TGI (LOX IMVI melanoma)?
Its TGI is 54.1 µM.

And the TGI (M14 melanoma)?
Its TGI is over 100 µM.

And the TGI (MALME-3M melanoma)?
Its TGI is over 100 µM.

What about the TGI (MCF7 breast) of the same molecule?
The TGI was over 100 µM.

What about the TGI (MDA-MB-231 breast) of the same molecule?
The TGI was 87.8 µM.

What about the TGI (MDA-MB-435) of the same molecule?
The TGI was over 100 µM.

What about the TGI (MDA-N) of the same molecule?
The TGI was 75.1 µM.

What about the TGI (MOLT-4 leukemia) of the same molecule?
Its TGI is over 100 µM.

What about the TGI (NCI-H226 lung) of the same molecule?
The TGI was over 100 µM.

What about the TGI (NCI-H23 lung) of the same molecule?
Its TGI is over 100 µM.

And the TGI (NCI-H460 lung)?
The TGI was over 100 µM.

What about the TGI (NCI-H522 lung) of the same molecule?
Its TGI is 57.8 µM.

What about the TGI (NCI/ADR-RES ovarian) of the same molecule?
Its TGI is 66 µM.

What about the TGI (OVCAR-4 ovarian) of the same molecule?
The TGI was over 100 µM.

And the TGI (OVCAR-5 ovarian)?
The TGI was over 100 µM.

And the TGI (OVCAR-8 ovarian)?
The TGI was over 100 µM.

What about the TGI (PC-3 prostate) of the same molecule?
Its TGI is 95.7 µM.

And the TGI (RPMI-8226 leukemia)?
Its TGI is over 100 µM.

What about the TGI (RXF 393 renal) of the same molecule?
Its TGI is over 100 µM.

What about the TGI (SF-295 CNS) of the same molecule?
Its TGI is over 100 µM.

What about the TGI (SF-539 CNS) of the same molecule?
The TGI was over 100 µM.

What about the TGI (SK-MEL-2 melanoma) of the same molecule?
The TGI was 61.1 µM.

What about the TGI (SK-MEL-28 melanoma) of the same molecule?
The TGI was over 100 µM.

What about the TGI (SK-MEL-5 melanoma) of the same molecule?
The TGI was 94.4 µM.

What about the TGI (SK-OV-3 ovarian) of the same molecule?
Its TGI is over 100 µM.

And the TGI (SN12C renal)?
The TGI was over 100 µM.

What about the TGI (SNB-19 CNS) of the same molecule?
The TGI was over 100 µM.

What about the TGI (SNB-75 CNS) of the same molecule?
Its TGI is 86.4 µM.

What about the TGI (SR leukemia) of the same molecule?
Its TGI is over 100 µM.

And the TGI (SW-620 colon)?
The TGI was over 100 µM.

What about the TGI (T-47D breast) of the same molecule?
Its TGI is over 100 µM.

What about the TGI (TK-10 renal) of the same molecule?
The TGI was over 100 µM.

And the TGI (U251 CNS)?
Its TGI is over 100 µM.

What about the TGI (UACC-257 melanoma) of the same molecule?
Its TGI is over 100 µM.

What about the TGI (UACC-62 melanoma) of the same molecule?
Its TGI is over 100 µM.

What about the TGI (UO-31 renal) of the same molecule?
Its TGI is over 100 µM.

`C=C1C2CC[C@@](C)(O)C2[C@H]2OC(=O)C(=C)[C@@H]2C[C@H]1O` (stereo not given in full) was tested. Which TGI (786-0 renal) did it give?
The TGI was 39.2 µM.

And the TGI (A498 renal)?
The TGI was over 100 µM.

And the TGI (A549 NSCLC)?
Its TGI is over 100 µM.

And the TGI (ACHN renal)?
Its TGI is 22.7 µM.

And the TGI (BT-549 breast)?
Its TGI is 24.8 µM.

And the TGI (CAKI-1 renal)?
Its TGI is 27.2 µM.

And the TGI (CCRF-CEM leukemia)?
The TGI was 17.9 µM.

And the TGI (COLO 205 colon)?
Its TGI is 37.6 µM.

What about the TGI (DU-145 prostate) of the same molecule?
The TGI was 35.5 µM.

What about the TGI (EKVX NSCLC) of the same molecule?
Its TGI is over 100 µM.

What about the TGI (HCC-2998 colon) of the same molecule?
Its TGI is 37.3 µM.

And the TGI (HCT-116 colon)?
The TGI was over 100 µM.

And the TGI (HCT-15 colon)?
Its TGI is 45.9 µM.

What about the TGI (HL-60(TB) leukemia) of the same molecule?
The TGI was over 100 µM.

What about the TGI (HOP-62 NSCLC) of the same molecule?
Its TGI is over 100 µM.

What about the TGI (HOP-92 NSCLC) of the same molecule?
The TGI was 88.9 µM.

What about the TGI (HS 578T breast) of the same molecule?
Its TGI is 71.5 µM.

And the TGI (HT29 colon)?
The TGI was 32.7 µM.

What about the TGI (IGROV1 ovarian) of the same molecule?
The TGI was over 100 µM.

And the TGI (K-562 leukemia)?
The TGI was over 100 µM.

What about the TGI (KM12 colon) of the same molecule?
The TGI was 46.2 µM.

And the TGI (LOX IMVI melanoma)?
Its TGI is 35 µM.

What about the TGI (M14 melanoma) of the same molecule?
Its TGI is 31.9 µM.

What about the TGI (MALME-3M melanoma) of the same molecule?
Its TGI is 30.5 µM.

And the TGI (MCF7 breast)?
The TGI was 27.3 µM.

What about the TGI (MDA-MB-231 breast) of the same molecule?
The TGI was 80.1 µM.

What about the TGI (MDA-MB-435) of the same molecule?
Its TGI is over 100 µM.

What about the TGI (MDA-N) of the same molecule?
The TGI was 91.1 µM.

And the TGI (MOLT-4 leukemia)?
The TGI was 60 µM.

What about the TGI (NCI-H226 lung) of the same molecule?
The TGI was 40.1 µM.

And the TGI (NCI-H23 lung)?
The TGI was 36 µM.

And the TGI (NCI-H522 lung)?
The TGI was 35.6 µM.

And the TGI (NCI/ADR-RES ovarian)?
The TGI was 45.8 µM.

And the TGI (OVCAR-3 ovarian)?
The TGI was 64.1 µM.

What about the TGI (OVCAR-4 ovarian) of the same molecule?
Its TGI is 30.3 µM.

What about the TGI (OVCAR-5 ovarian) of the same molecule?
The TGI was over 100 µM.

And the TGI (OVCAR-8 ovarian)?
The TGI was 56.5 µM.

What about the TGI (PC-3 prostate) of the same molecule?
The TGI was over 100 µM.

What about the TGI (RPMI-8226 leukemia) of the same molecule?
The TGI was over 100 µM.

And the TGI (RXF 393 renal)?
The TGI was 71.9 µM.

And the TGI (SF-268 CNS)?
Its TGI is over 100 µM.

And the TGI (SF-295 CNS)?
The TGI was over 100 µM.

What about the TGI (SF-539 CNS) of the same molecule?
Its TGI is 27.2 µM.

And the TGI (SK-MEL-2 melanoma)?
The TGI was 50.7 µM.

And the TGI (SK-MEL-28 melanoma)?
Its TGI is 72.8 µM.

And the TGI (SK-MEL-5 melanoma)?
Its TGI is 28.8 µM.

And the TGI (SK-OV-3 ovarian)?
Its TGI is 80.2 µM.

And the TGI (SN12C renal)?
The TGI was 59 µM.

What about the TGI (SNB-19 CNS) of the same molecule?
The TGI was over 100 µM.

And the TGI (SNB-75 CNS)?
Its TGI is over 100 µM.

What about the TGI (SR leukemia) of the same molecule?
The TGI was over 100 µM.

What about the TGI (SW-620 colon) of the same molecule?
The TGI was over 100 µM.

And the TGI (T-47D breast)?
Its TGI is 42.1 µM.

And the TGI (TK-10 renal)?
Its TGI is 37.8 µM.

What about the TGI (U251 CNS) of the same molecule?
Its TGI is over 100 µM.

What about the TGI (UACC-257 melanoma) of the same molecule?
Its TGI is 41.8 µM.

And the TGI (UACC-62 melanoma)?
The TGI was 30.1 µM.

What about the TGI (UO-31 renal) of the same molecule?
Its TGI is 31.5 µM.
